Data from paper PMC4593063 (Bioorganic & medicinal chemistry letters, 2015).

How the values were obtained:
WT AgAChE = WT AgAChE (Anopheles gambiae, UniProt Q869C3); test: modified Ellman assay, WT AgAChE inhibition; type: biochemical
An. gambiae [1] = test: injection toxicity; type: in vivo, Anopheles gambiae; conditions: injection into mosquito thorax
[2] = 19F NMR hydration study in aqueous solution; type: physicochemical; conditions: pH 7.7, 24 h
[3] = evaporative weight loss at room temperature; type: physicochemical; conditions: open 1 dram vial, fume hood
G119S AgAChE [4] = biological target: G119S AgAChE (Anopheles gambiae, UniProt Q869C3, G280S); type: biochemical; conditions: 60 min incubation
G119S AgAChE [5] = type: biochemical, Anopheles gambiae; conditions: 5g: 60 min incubation; dichlorvos: time not stated
[6] = test system: susceptible (G3) strain adult An. gambiae; test: tarsal contact toxicity, WHO treated paper protocol; type: in vivo, Anopheles gambiae; conditions: 40% mortality at 1000 μg/mL vs propoxur LC50 39 μg/mL
An. gambiae [7] = test: fumigation toxicity assay; parameters: species or system Anopheles gambiae; conditions: in vivo

Structure (SMILES)	Injection mortality at 50 ng/insect (An. gambiae [1])	% hydrated (19F NMR) [2]	% mass lost by evaporation ([3]; 1 day)	% mass lost by evaporation ([3]; 6 days)	% mass lost by evaporation ([3]; 12 days)	also measured
CCC(CC)n1cc(C(=O)CF)cn1 [Compound 10g]	21 ± 8%					WT AgAChE IC50 fold higher than that of propoxur (WT AgAChE; 10 minute incubation time): roughly 2 fold
CC(C)Cn1cc(C(=O)CF)cn1 [Compound 10i]		< 5%				
CC(C)Cn1cc(C(=O)C(F)F)cn1 [Compound 9i]		22%				
CC(C)(C)c1cccc(C(=O)C(F)(F)F)c1 [Compound 5c]		88%				
CNC(=O)Oc1ccccc1OC(C)C [propoxur]			0 ±1%	0 ± 1%	1 ± 1%	Injection LD50 (An. gambiae [1]; 95% confidence interval in parenthesis): 0.24 (0.20–0.34) ng/insect
CCC(CC)n1cc(C(=O)C(F)F)cn1 [Compound 9g]	65 ± 4%					WT AgAChE inhibition (IC50) as summarised in text (WT AgAChE; incubation time not specified): single digit nanomolar; G119S AgAChE IC50 fold lower than that of dichlorvos (G119S AgAChE [4]): 2 fold; G119S AgAChE IC50 fold lower than that of trifluoromethyl ketone 5g (G119S AgAChE [4]): 13 fold
CCC(CC)n1cc(C(=O)C(F)(F)F)cn1 [Compound 5g]	83 ± 6%	67%	9 ± 1%	33 ± 1%	68 ± 1%	potency at WT AgAChE fold greater than dichlorvos (WT AgAChE): 100 fold; ratio of G119S and WT AgAChE IC50 values (G119S AgAChE [5]): roughly 2,500 fold; tarsal contact toxicity fold lower relative to propoxur [6]: ~ 25 fold; % mass lost by evaporation ([3]; 28 days): 99 ± 1%; fumigation toxicity fold less than dichlorvos (An. gambiae [7]): > 100 fold
COP(=O)(OC)OC=C(Cl)Cl [dichlorvos]			2 ± 1%	16 ± 1%	32 ± 1%	% mass lost by evaporation ([3]; 28 days): 51 ± 1%
